Test results taken from PubChem BioAssay (NCI).
Several values for one entry are separate records, joined by “and”; a condition that tells them apart may be missing. Equal entries are not always repeated.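 Briefly, cells in 96-well plates were exposed to five compound concentrations for 48 h, and endpoints were estimated by linear interpolation. Abbreviation: GI50, concentration required for 50% inhibition of growth. TGI denotes the concentration required for complete inhibition of growth.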

Legend:
Assay in all cases: DTP human tumour cell line panel, 48 h
HOP-92 NSCLC = system: HOP-92 NSCLC
A549 NSCLC = system: A549 NSCLC
HCT-116 colon = system: HCT-116 colon
NCI-H23 lung = system: NCI-H23 lung
PC-3 prostate = system: PC-3 prostate
TK-10 renal = system: TK-10 renal
SNB-75 CNS = system: SNB-75 CNS
ACHN renal = system: ACHN renal
SN12C renal = system: SN12C renal
786-0 renal = system: 786-0 renal

Structure (SMILES)	GI50 (HOP-92 NSCLC)	TGI (HOP-92 NSCLC)	GI50 (A549 NSCLC)	TGI (A549 NSCLC)	GI50 (HCT-116 colon)	TGI (HCT-116 colon)	GI50 (NCI-H23 lung)	TGI (NCI-H23 lung)	GI50 (PC-3 prostate)	TGI (PC-3 prostate)	GI50 (TK-10 renal)	TGI (TK-10 renal)	GI50 (SNB-75 CNS)	TGI (SNB-75 CNS)	GI50 (ACHN renal)	TGI (ACHN renal)	GI50 (SN12C renal)	TGI (SN12C renal)	GI50 (786-0 renal)	TGI (786-0 renal)
CCOC(=O)Cc1csc(NC(=O)COC(=O)c2ccc(OC)cc2)n1	7.58 µM	24.3 µM	> 100 µM	> 100 µM	> 91.9 µM	> 100 µM	29.8 µM	> 100 µM	26.5 µM	> 100 µM	> 100 µM	> 100 µM	28.3 µM	> 56.6 µM	> 100 µM	> 100 µM	> 100 µM	> 100 µM	35.7 µM	> 57.6 µM
O=C(CC(=O)c1ccccc1)c1ccccc1	15.8 µM	51.3 µM	26.9 µM	69.5 µM	16.6 µM	> 100 µM	13.6 µM	43.4 µM	25.9 µM	> 100 µM	20.5 µM	93.7 µM	22.9 µM	> 100 µM	11.5 µM	34.5 µM	52.8 µM	> 100 µM	11 µM	43.6 µM
O=C(Nc1cc(-c2cccnc2)nc(NCCCN2CCOCC2)n1)c1cc(Br)cc(C(F)(F)F)c1	1.97 µM	7.62 µM	10.1 µM	22.2 µM	2.09 µM	4.81 µM	3.55 µM	15 µM	4.03 µM	15.7 µM	5.07 µM	18.1 µM	1.52 µM	3.59 µM	3.04 µM	11.3 µM	7.74 µM	21.8 µM	1.55 µM	3.17 µM
C#CCN(Cc1nc2cc(C(F)(F)F)ccc2nc1-c1ccccc1)c1ccc(F)c(F)c1	59.5 µM	> 100 µM	19.8 µM	82.1 µM	38 µM	> 100 µM	94.3 µM	> 100 µM	37.6 µM	> 100 µM	> 100 µM	> 100 µM	> 100 µM	> 100 µM	78.3 µM	> 100 µM	46.2 µM	> 100 µM	> 100 µM	> 100 µM
O=C1c2ccccc2-c2c1c1ccccc1c(=O)n2-c1ccccc1	–	> 50.3 µM	–	> 100 µM	–	26.8 µM	–	24 µM	–	> 100 µM	–	27 µM	–	37.1 µM	–	17.1 µM	–	> 100 µM	–	10.6 µM
N#Cc1c2c(c(-c3cccs3)n(C3OC(CO)C(O)C(O)C3O)c1=S)CCc1ccccc1-2 (stereo unspecified)	3.35 µM	> 88.8 µM	20.9 µM and > 85.1 µM	> 100 µM	7.39 µM and 15.5 µM	> 100 µM	13.5 µM and > 39.3 µM	> 100 µM	–	> 100 µM	–	> 100 µM	3.49 µM and 1.55 µM	> 29.3 µM and 12.7 µM	13.8 µM and > 92.2 µM	> 100 µM	–	> 100 µM	12.3 µM and 25.2 µM	> 100 µM
COc1cc([C@@H]2c3cc4c(cc3C(OC3O[C@@H]5COC(C)O[C@H]5[C@H](O)[C@H]3O)C3COC(=O)[C@@H]32)OCO4)cc(OC)c1O (stereo partly specified)	0.397 µM	9.97 µM	0.363 µM	> 39.1 µM	1.27 µM	> 50 µM	0.652 µM	6.88 µM	5.59 µM	> 50 µM	3.56 µM	15.4 µM	1.18 µM	> 18.9 µM	1.27 µM	> 25 µM	0.917 µM	12.4 µM	0.976 µM	3.67 µM
COc1cccc(C2=C(c3cn(C)c4cccc(OC)c34)C(=O)NC2=O)c1	8.89 µM	> 25 µM	11.2 µM	> 25 µM	9.55 µM	> 25 µM	19.6 µM	> 25 µM	8.02 µM	> 25 µM	15.3 µM	> 25 µM	4.94 µM	24.5 µM	15.5 µM	> 25 µM	15.1 µM	> 25 µM	17.9 µM	> 25 µM
COc1cc(-c2nn(-c3ccc(NC(=O)c4cc(Cl)cc(Cl)c4)cc3)cc2-c2ccncc2)ccc1Cl	> 100 µM	> 100 µM	> 100 µM	> 100 µM	16.3 µM	> 100 µM	> 100 µM	> 100 µM	42 µM	> 100 µM	> 100 µM	> 100 µM	4.14 µM	> 100 µM	> 100 µM	> 100 µM	> 100 µM	> 100 µM	1.97 µM	7.66 µM
Oc1c(CN2CCOCC2)cc(COCc2ccccc2)c2cccnc12	41.6 µM	> 100 µM	4.22 µM	64 µM	2.82 µM	> 100 µM	3.25 µM	> 100 µM	7.34 µM	> 100 µM	3.75 µM	> 100 µM	10.4 µM	> 100 µM	0.571 µM	> 100 µM	5.29 µM	> 100 µM	2.67 µM	19.2 µM
Cc1sc2ncn(Cc3ccc(Cl)c(Cl)c3)c(=O)c2c1C	18.4 µM	73.7 µM	31.3 µM	> 100 µM	17.4 µM	44.8 µM	32.5 µM	> 100 µM	20.1 µM	> 100 µM	1.81 µM	7.91 µM	29.3 µM	> 100 µM	12.4 µM	> 100 µM	20.5 µM	> 100 µM	34.2 µM	> 100 µM
c1ccc2nc(OCCN3CC3)ccc2c1	1.9 µM	9.44 µM	14.4 µM	30.7 µM	2.39 µM	15.5 µM	12.9 µM	35.8 µM	10.4 µM	25.2 µM	4.89 µM	23.1 µM	16.9 µM	35.2 µM	15 µM	35.9 µM	11.8 µM	29.5 µM	14.3 µM	37.3 µM
O=C(Nc1ccc(I)cc1F)c1cc(I)ccc1O	0.179 µM	0.777 µM	1.15 µM	> 100 µM	0.768 µM	3.35 µM	0.531 µM	2.25 µM	1.14 µM	9.76 µM	1.49 µM	> 64.5 µM	0.752 µM	6.75 µM	1.69 µM	> 100 µM	0.511 µM	–	1.03 µM	9.51 µM
CC(=O)N1CCN(CCOc2ccc(C3CCN(C4=Nn5c(nnc5C(F)(F)F)CC4)CC3)cc2)CC1	7.64 µM	> 100 µM	41.4 µM	> 100 µM	15.7 µM	> 100 µM	11.4 µM	> 100 µM	7.87 µM	> 100 µM	7.31 µM	> 100 µM	3.12 µM	> 100 µM	10.6 µM	> 100 µM	14.5 µM	> 100 µM	25.1 µM	> 100 µM
CCCCOc1ccc(/C=N/Nc2cc(C)nc3ccc(Cl)cc23)cc1	1.43 µM	2.99 µM	1.86 µM	3.44 µM	2.13 µM	4.85 µM	1.77 µM	3.42 µM	1.71 µM	3.35 µM	1.87 µM	3.28 µM	1.75 µM	3.33 µM	1.73 µM	3.1 µM	1.63 µM	3.08 µM	2 µM	3.76 µM
O=C(CCl)Nc1cc(O)c2c(c1)C(=O)c1cccc(O)c1C2=O	1.79 µM	3.63 µM	7.44 µM	48.5 µM	0.646 µM	2.12 µM	1.13 µM	3.45 µM	1.57 µM	3.95 µM	1.97 µM	3.39 µM	1.21 µM	3.2 µM	1.55 µM	2.98 µM	0.68 µM	1.98 µM	1.99 µM	4.16 µM
O=S(=O)(O)ONC1=NCCN1	> 100 µM	> 100 µM	> 100 µM	> 100 µM	65.1 µM	> 100 µM	94.2 µM	> 100 µM	> 100 µM	> 100 µM	> 100 µM	> 100 µM	> 100 µM	> 100 µM	> 100 µM	> 100 µM	> 100 µM	> 100 µM	90.6 µM	> 100 µM
